ChEMBL document CHEMBL4346757, “Synthesis and biological evaluation of 7-methoxy-1-(3,4,5-trimethoxyphenyl)-4,5-dihydro-2H-benzo[e]indazoles as new colchicine site inhibitors” (Bioorg Med Chem Lett, 2019)

What was measured:
Format in all cases: functional
A549 = test: Growth inhibition of human A549/ATCC cells assessed as cell growth at 10 uM after 48 hrs by SRB assay relative to control; settings: A549, 48 h, read-out: Activity
U-251 [1] = test: Growth inhibition of human U251 cells assessed as cell growth at 0.1 uM after 48 hrs by SRB assay relative to control; settings: U-251, 48 h, read-out: Activity
SN12C [2] = test: Growth inhibition of human SN12C cells assessed as cell growth at 10 uM after 48 hrs by SRB assay relative to control; settings: read-out: Activity
Malme-3M [3] = test: Growth inhibition of human MALME-3M cells assessed as cell growth at 1 uM after 48 hrs by SRB assay relative to control; settings: read-out: Activity
DU-145 = test: Growth inhibition of human DU145 cells assessed as cell growth at 1 uM after 48 hrs by SRB assay relative to control; settings: DU-145, 48 h, read-out: Activity
K562 [4] = test: Growth inhibition of human K562 cells assessed as cell growth at 0.1 uM after 48 hrs by SRB assay relative to control; settings: K562, 48 h, read-out: Activity
UO-31 = test: Growth inhibition of human UO31 cells assessed as cell growth at 10 uM after 48 hrs by SRB assay relative to control; settings: UO-31, 48 h, read-out: Activity
SF-268 = test: Growth inhibition of human SF268 cells assessed as cell growth at 10 uM after 48 hrs by SRB assay relative to control; settings: SF-268, 48 h, read-out: Activity
OVCAR-4 = test: Growth inhibition of human OVCAR4 cells assessed as cell growth at 1 uM after 48 hrs by SRB assay relative to control; settings: OVCAR-4, 48 h, read-out: Activity
HOP-62 [5] = test: Growth inhibition of human HOP62 cells assessed as cell growth at 1 uM after 48 hrs by SRB assay relative to control; settings: HOP-62, 48 h, read-out: Activity
MDA-MB-468 [6] = test: Cytotoxicity against human MDA-MB-468 cells assessed as growth inhibition after 48 hrs by SRB assay; settings: MDA-MB-468, 48 h
MDA-MB-435 = test: Cytotoxicity against human MDA-MB-435 cells assessed as growth inhibition after 48 hrs by SRB assay; settings: MDA-MB-435, 48 h
NCI-H23 = test: Growth inhibition of human NCI-H23 cells assessed as cell growth at 0.1 uM after 48 hrs by SRB assay relative to control; settings: NCI-H23, 48 h, read-out: Activity
U-251 [7] = test: Growth inhibition of human U251 cells assessed as cell growth at 0.01 uM after 48 hrs by SRB assay relative to control; settings: U-251, 48 h, read-out: Activity
HOP-62 [8] = test: Growth inhibition of human HOP62 cells assessed as cell growth at 0.1 uM after 48 hrs by SRB assay relative to control; settings: HOP-62, 48 h, read-out: Activity
CAKI-1 = test: Growth inhibition of human Caki1 cells assessed as cell growth at 10 uM after 48 hrs by SRB assay relative to control; settings: CAKI-1, 48 h, read-out: Activity
SK-MEL-2 [9] = test: Growth inhibition of human SK-MEL-2 cells assessed as cell growth at 0.1 uM after 48 hrs by SRB assay relative to control; settings: SK-MEL-2, 48 h, read-out: Activity
MDA-MB-468 [10] = test: Growth inhibition of human MDA-MB-468 cells assessed as cell growth at 0.01 uM after 48 hrs by SRB assay relative to control; settings: MDA-MB-468, 48 h, read-out: Activity
NCI-H460 = test: Cytotoxicity against human NCI-H460 cells assessed as growth inhibition after 48 hrs by SRB assay; settings: NCI-H460, 48 h
EKVX = test: Growth inhibition of human EKVX cells assessed as cell growth at 1 uM after 48 hrs by SRB assay relative to control; settings: read-out: Activity
SN12C [11] = test: Growth inhibition of human SN12C cells assessed as cell growth at 1 uM after 48 hrs by SRB assay relative to control; settings: read-out: Activity
OVCAR-5 = test: Cytotoxicity against human OVCAR5 cells assessed as growth inhibition after 48 hrs by SRB assay; settings: OVCAR-5, 48 h
HCT-15 = test: Growth inhibition of human HCT15 cells assessed as cell growth at 10 uM after 48 hrs by SRB assay relative to control; settings: HCT-15, 48 h, read-out: Activity
SR = test: Growth inhibition of human SR cells assessed as cell growth at 1 uM after 48 hrs by SRB assay relative to control; settings: read-out: Activity
Malme-3M [12] = test: Growth inhibition of human MALME-3M cells assessed as cell growth at 0.1 uM after 48 hrs by SRB assay relative to control; settings: read-out: Activity
M14 = test: Growth inhibition of human M14 cells assessed as cell growth at 10 uM after 48 hrs by SRB assay relative to control; settings: M14, 48 h, read-out: Activity
SK-MEL-2 [13] = test: Growth inhibition of human SK-MEL-2 cells assessed as cell growth at 1 uM after 48 hrs by SRB assay relative to control; settings: SK-MEL-2, 48 h, read-out: Activity
PC-3 = test: Growth inhibition of human PC3 cells assessed as cell growth at 100 uM after 48 hrs by SRB assay relative to control; settings: PC-3, 48 h, read-out: Activity
ACHN = test: Growth inhibition of human ACHN cells assessed as cell growth at 1 uM after 48 hrs by SRB assay relative to control; settings: read-out: Activity
K562 [14] = test: Cytotoxicity against human K562 cells assessed as growth inhibition after 48 hrs by SRB assay; settings: K562, 48 h
HT-29 = test: Growth inhibition of human HT-29 cells assessed as cell growth at 100 uM after 48 hrs by SRB assay relative to control; settings: HT-29, 48 h, read-out: Activity
MDA-MB-231 = test: Growth inhibition of human MDA-MB-231/ATCC cells assessed as cell growth at 0.01 uM after 48 hrs by SRB assay relative to control; settings: MDA-MB-231, 48 h, read-out: Activity
[15] = read-out: LC50 (the source's name)
[16] = read-out: pLC50 (the source's name) (converted)

`COc1ccc2c(c1)CCc1n[nH]c(-c3cc(OC)c(OC)c(OC)c3)c1-2` gave a growth at 10 µM (A549) of 11%, a growth at 0.1 µM (U-251 [1]) of 10% and a growth at 10 µM (SN12C [2]) of 24%. The growth at 1 µM (Malme-3M [3]) was 44%, the growth at 1 µM (DU-145) was 12% and the growth at 0.1 µM (K562 [4]) was 19%. It also gave a growth at 10 µM (UO-31) of 13%, a growth at 10 µM (SF-268) of 18% and a growth at 1 µM (OVCAR-4) of 40%. The growth at 1 µM (HOP-62 [5]) was 6%, the GI50 (MDA-MB-468 [6]; read-out: GI50) was < 0.01 µM and the LC50 (concentration killing 50% of cells) (MDA-MB-468 [6]; read-out: LC50) was > 100 µM. For the same compound, the TGI (MDA-MB-468 [6]; read-out: TGI) was < 0.01 µM, the GI50 (MDA-MB-468 [6]; read-out: pGI50 (converted)) was < 0.01 µM and the LC50 (concentration killing 50% of cells) (MDA-MB-468 [6]; read-out: pLC50 (converted)) was > 100 µM. For the same compound, the TGI (MDA-MB-468 [6]; read-out: pTGI) was < 0.01 µM, the GI50 (MDA-MB-435; read-out: GI50) was < 0.01 µM and the CC50 (MDA-MB-435; [15]) was 29.8 µM. The TGI (MDA-MB-435; read-out: TGI) was < 0.01 µM, the GI50 (MDA-MB-435; read-out: pGI50 (converted)) was < 0.01 µM and the CC50 (MDA-MB-435; [16]) was 29.5 µM. The TGI (MDA-MB-435; read-out: pTGI) was < 0.01 µM, the growth at 0.1 µM (NCI-H23) was 5% and the growth at 0.01 µM (U-251 [7]) was 14%. The growth at 0.1 µM (HOP-62 [8]) was 6%, the growth at 10 µM (CAKI-1) was 13% and the growth at 0.1 µM (SK-MEL-2 [9]) was 40%. The growth at 0.01 µM (MDA-MB-468 [10]) was -7%, the GI50 (NCI-H460; read-out: GI50) was < 0.01 µM and the CC50 (NCI-H460; [15]) was 68.5 µM. The TGI (NCI-H460; read-out: TGI) was 2.06 µM, the GI50 (NCI-H460; read-out: pGI50 (converted)) was < 0.01 µM and the CC50 (NCI-H460; [16]) was 69.2 µM. It also gave a TGI (NCI-H460; read-out: pTGI (converted)) of 2.04 µM, a growth at 1 µM (EKVX) of 52% and a growth at 1 µM (SN12C [11]) of 36%. For the same compound, the GI50 (OVCAR-5; read-out: GI50) was 0.242 µM, the LC50 (OVCAR-5; read-out: LC50) was > 100 µM and the TGI (OVCAR-5; read-out: TGI) was 38.8 µM. The GI50 (OVCAR-5; read-out: pGI50 (converted)) was 0.24 µM, the LC50 (OVCAR-5; read-out: pLC50 (converted)) was > 100 µM and the TGI (OVCAR-5; read-out: pTGI (converted)) was 38.9 µM. The growth at 10 µM (HCT-15) was 3%, the growth at 1 µM (SR) was 16% and the growth at 0.1 µM (Malme-3M [12]) was 48%. For the same compound, the growth at 10 µM (M14) was 2%, the growth at 1 µM (SK-MEL-2 [13]) was 42% and the growth at 100 µM (PC-3) was -43%. The growth at 1 µM (ACHN) was 25%, the GI50 (K562 [14]; read-out: GI50) was < 0.01 µM and the CC50 (K562 [14]; [15]) was > 100 µM. For the same compound, the TGI (K562 [14]; read-out: TGI) was > 100 µM, the GI50 (K562 [14]; read-out: pGI50 (converted)) was < 0.01 µM and the CC50 (K562 [14]; [16]) was > 100 µM. The TGI (K562 [14]; read-out: pTGI) was > 100 µM, the growth at 100 µM (HT-29) was -72% and the growth at 0.01 µM (MDA-MB-231) was 34%.
